Each block holds one molecule with its values, some of them ahead of it.
What was measured:
P388 cell line = tested on: P388 cell line; parameters: method as in PMID 11425579; settings: cited from earlier work
A549 cell line = tested on: A549 cell line; parameters: method as in PMID 11425579; settings: cited from earlier work
HCT-116 cells = experiment: MTT assay, IC50 determination; assay type: cell-based; settings: Homo sapiens, HCT-116, colorectal cancer cells, comparator
Method: HCT-116 (colon cancer cell line) was obtained from the American Type Culture Collection (ATCC). The cancer cell line was grown in Dulbecco’s Modified Eagle’s Medium (DMEM) supplemented with 10% fetal bovine serum (FBS), penicillin/streptomycin (100 U/mL and 100 μg/mL, respectively) and 2 mM L-glutamine. The cells were maintained at 37 °C in 5% CO2.
The cytotoxic activity of nortopsintin analogs (4a–4j) was determined by the national cancer institute (NCI, Bethesda, Maryland, USA) against 60 different cancer cell lines at a single concentration of (10^−5 M). For the determination of IC50 value, we used MTT assay kit (Sigma) according to the manufacturer’s protocol. HCT-116 cells were seeded into a 96-well plate at a concentration of 20,000 cells/well. After 24 h, the media was aspirated and replaced with serum-free media containing serial dilutions of the 4i compound. The cells were treated for 48 h in triplicates. […] The percentage of cytotoxicity was calculated using the following equation: % Cytotoxicity = [1 − (AVx/AVNC)] × 100.
Where, AVx denotes the average absorbance of the sample and AVNC denotes the average absorbance of the negative control. The absorbance was measured at 570 nm with reference at 690 nm.

CDK1 = tested on: CDK1; parameters: method as in PMID 28688277; settings: cited from earlier work
MCF7 cancer cell line = tested on: MCF7 cancer cell line; parameters: method as in PMID 28688277; settings: cited from earlier work

SMILES: COc1ccc2c(-c3cc(C(F)(F)F)cc(-c4cn(S(=O)(=O)c5ccc(C)cc5)c5cc(OC)ccc45)n3)cn(S(=O)(=O)c3ccc(C)cc3)c2c1 [II, bis(indolyl)-4-trifluoromethylpyridine]
IC50 (P388 cell line): 4.3 µM
IC50 (A549 cell line): 1.7 µM

IC50 (HCT-116 cells): 10.1 µM
SMILES: COc1cccc2c1C(=O)c1c(O)c3c(c(O)c1C2=O)C[C@@](O)(C(=O)CO)C[C@@H]3O[C@H]1C[C@H](N)[C@H](O)[C@H](C)O1 [doxorubicin, reference compound]

SMILES: COCCn1cc(-c2nc(-c3c[nH]c4ncccc34)cs2)c2cc(OC)ccc21 [III]
CDK1 activity in vitro (CDK1): inhibiting CDK1 activity in vitro
antitumor activity (MCF7 cancer cell line): demonstrated antitumor activity

— publication PMC11530689, “Anti colorectal cancer activity and in silico studies of novel pyridine nortopsentin analog as cyclin dependent kinase 6 inhibitor” (Scientific Reports, 2024)
